In patent US20050267067A1, “Radical reaction inhibitors, method for inhibition of radical reactions, and use thereof” (priority 2002, published 2005):

Experiments:
[1] = Preservation of vitamin D3 tablets at 60° C., absorbance at 265 nm; assay type: physicochemical; details: for Amount of vitamin D3: per one gram of vitamin D3 tablet
Protocol: Vitamin D3 (cholecalciferol), as vitamin D, commercialized by Wako Pure Chemical Industries Ltd., Tokyo, Japan, was dissolved in ethanol with the highest purity, commercialized by Katayama Chemical Industries Co., Ltd., Osaka, Japan, to make into an ethanol solution with a vitamin D3 content of 3%. To eight grams of the powdery anhydrous cyclotetrasaccharide, prepared in Example 3, was added 1.5 ml of the above ethanol solution and the resulting mixture was pulverized similarly as in Example 20, dried under a reduced pressure, and made into a powdery vitamin D3 preparation containing cyclotetrasaccharide. […] About 0.3 gram each of the powdery vitamin D3 preparations containing any one of the above saccharides was made into a vitamin D3 tablet by pressurizing at 200 kg/cm^2 for two minutes using a tablet machine. Vitamin D3 tablets thus obtained were weighted and each one tablet of which was placed in a 20 ml-glass vial and sealed to obtain five kinds of vitamin D3 tablets containing a saccharide. The vials were preserved under a normal pressure at 60° C. and the amount of vitamin D3 remaining in the vials was examined just after preparation, after preserving for two hours, one day, two days, and seven days, respectively. The amount of vitamin D3 in each tablet was determined by: adding 10 ml of 70% aqueous ethanol solution to each vial containing any of the test samples; crushing the tablets using a glass rod before extracting vitamin D3; filling up the total volume to 50 ml with 70% aqueous ethanol solution; centrifuging the resulting solutions at 10,000 rpm for 10 minutes; filtrating the resulting supernatants; and measuring the absorbance at a wavelength of 265 nm for the resulting filtrates. The amount of vitamin D3 was calculated based on the absorbance coefficient (E1%) at a wavelength of 265 nm, which was regarded as 475. The amount of vitamin D3 (mg) per one gram of each of the vitamin D3 tablets and the residual vitamin D3 (%) was calculated based on the amount of vitamin D3 in the test samples just after preparation, which was regarded as 100%. The results are in Table

[2] = Modification of L-lysine by lipid peroxides (protein carbonyl, OLAARPs); details: for OLAARPs Formation: (%) / Protein carbonyl Formation: (%): L-lysine, versus no saccharide; for Formed OLAARPs / Formed Protein carbonyl: 37° C., 24 hours
Protocol: In this experiment, saccharide solutions were prepared to give an equal total saccharide molar concentration in each solution.
As a negative control, PBS was used.
To five milliliters of either of the above saccharide solutions for testing or the negative control was added 10 mg of calf serum albumin (BSA) or L-lysine, followed by dissolving. To each of the resulting solutions was added 25 μg of 2,4-decadienal or malondialdehyde (MDA) as a lipid peroxide, followed by reaction at 37° C. for 24 hours. After completion of the reaction, protein carbonyl and reaction products of oxidized lipids/aminoacids (OLAARPs) formed as aldehyde adducts were quantified on the calorimetric method. […] The formation levels of protein carbonyl and OLAARPs were determined based on the absorbances obtained in this experiment, in terms of the molar absorbance coefficient for each molecule as disclosed in Biochim. Biophys. Acta, No. 1,258, pp. 319-327 (1985).
To each of the resulting mixtures was added 600 μl of 30% trichloroacetic acid, and the mixture was allowed to stand at 0° C. for one hour and centrifuged at 10,000 rpm for 15 min to obtain a precipitate, followed by washing the resulting precipitate four times with two milliliters of ethanol/ethylacetate (1:1), respectively, adding 1.5 ml of 6M-guanidine hydrochloride/20 mM-NaPi/TFA (pH 2.3) to the resultant, allowing the mixture to stand at 37° C. for 30 min, and measuring the absorbance of the resulting mixture at a wavelength of 580 nm, ε=35,000 M^−1 cm^−1. […] To any one of the resulting mixtures was added two milliliters of a 12.5 mM DNPH/2.5 N-hydrochloride solution, and the resulting mixture was allowed to stand at 45° C. for 30 min, followed by measuring the absorbance of the resulting mixture at a wavelength of 580 nm, E=35,000 M^−1 cm^−1.

[3] = Preservation of powdery vitamin E preparations at 60° C., GC; assay type: physicochemical; details: for Amount of vitamin E: per one gram of vitamin E preparation
Protocol: Vitamin E (α-tocopherol) commercialized by Wako Pure Chemical Industries Ltd., Tokyo, Japan, was dissolved in ethanol (a special grade reagent, commercialized by Katayama Chemical Industries Co., Ltd., Osaka, Japan) to make into an ethanol solution with a vitamin E content of 10%. Ten grams of the powdery anhydrous cyclotetrasaccharide, prepared in Example 3, were placed in a glass mortar and then a small amount of […] was added to the cyclotetrasaccharide. Using a glass rod, the mixture was repeatedly mixed with additional ethanol or acetic acid until the mixture could not keep its powdery form. Thus, a vitamin E preparation was obtained. As controls, vitamin E preparations were prepared by using “ISOELITE P™”, a powdery branched cyclodextrin commercialized by Ensuiko Sugar Refining Co., Ltd., Tokyo, Japan, a powdery anhydrous crystalline α,α-trehalose prepared according to the method disclosed in Japanese Patent Kokai No. 213,283/95, “PINEFIBER™”, a powdery dextrin product commercialized by Matsutani Chemical Industries Co., Ltd., Hyogo, Japan, or a soluble starch commercialized by Katayama Chemical Industries Co., Ltd., Osaka, Japan, except for using cyclotetrasaccharide by the same procedure. Successively, each powdery vitamin E preparation was dried under a reduced pressure by keeping the preparation at ambient temperature for five hours in a desiccators containing (P2O5) to evaporate ethanol. About 0.5 gram each of the five powdery vitamin E preparations containing any one of those saccharides was weighted and placed in 20 ml-glass vials and sealed. […] The amount of vitamin E in each sample was determined by: adding 10 ml of ethanol to each of the vials containing the test samples; extracting vitamin E by shaking the resulting suspensions; centrifuging the suspensions at 10,000 rpm for 10 minutes; and measuring the amount of vitamin E in the resulting supernatants by gas-chromatography (GC). GC was carried out using “GC-14A”, a GL apparatus produced by Shimadzu Corporation, Kyoto, Japan, installed with “DB-1”, a column (internal diameter: 0.25 mm, length: 30 m) commercialized by Agilent Technologies, USA (former name; J & W Scientific, USA). The amount of vitamin E (mg) per one gram of a vitamin E preparation and the residual vitamin E (%) was calculated and expressed with a relative value, when the amount of vitamin E in each test sample just after its preparation was regarded as 100%, as shown in Table 11.

[4] = just after its preparation (regarded as 100%)
[5] = added lipid peroxide 2,4-decadienal
[6] = added lipid peroxide malondialdehyde (MDA)
[7] = 2,4-decadienal, listed as cyclotetrasaccharide
[8] = MDA, listed as cyclotetrasaccharide

Residual D3 percentage (%) [1, 4] | Residual D3 percentage (%) ([1]; one day at 60° C.) | Amount of vitamin D3 ([1]; just after its preparation) | Amount of vitamin D3 ([1]; one day at 60° C.) | Amount of vitamin D3 ([1]; seven days at 60° C.) | Amount of vitamin D3 ([1]; two days at 60° C.) | Amount of vitamin D3 ([1]; two hours at 60° C.) | Residual D3 percentage (%) ([1]; seven days at 60° C.) | Residual D3 percentage (%) ([1]; two days at 60° C.) | Residual D3 percentage (%) ([1]; two hours at 60° C.) | Residual vitamin E (%) ([3]; 0 days (regarded as 100%)) | Residual vitamin E (%) ([3]; 1 day at 60° C.) | SMILES | OLAARPs Formation: (%) ([2]; 2,4-decadienal) | Protein carbonyl Formation: (%) ([2]; 2,4-decadienal) | OLAARPs Formation: (%) ([2]; MDA) | Protein carbonyl Formation: (%) ([2]; MDA) | Formed OLAARPs [2, 5] | Formed Protein carbonyl [2, 5] | Formed OLAARPs [2, 6] | Formed Protein carbonyl [2, 6] | also measured
(100) % | (24) % | 4.67 mg | 1.11 mg | 1.05 mg | 1.02 mg | 1.58 mg | (22) % | (22) % | (34) % | (100) % | (99) % | OC[C@H]1O[C@H](O[C@H]2O[C@H](CO)[C@@H](O)[C@H](O)[C@H]2O)[C@H](O)[C@@H](O)[C@@H]1O [α, α-Trehalose, α, α-trehalose, reference compound] | (70) % | (55) % | (38) % | (67) % | 5.72 μmol/g-L-lysine | 7.47 μmol/g-L-lysine | 3.24 μmol/g-L-lysine | 3.99 μmol/g-L-lysine | Residual vitamin E (%) ([3]; 3 days at 60° C.): (85) %; Residual vitamin E (%) ([3]; 7 days at 60° C.): (73) %; Residual vitamin E (%) ([3]; 14 days at 60° C.): (41) %; Amount of vitamin E ([3]; 0 days at 60° C.): 36.7 mg; Amount of vitamin E ([3]; 1 day at 60° C.): 36.2 mg; Amount of vitamin E ([3]; 3 days at 60° C.): 31.0 mg; Amount of vitamin E ([3]; 7 days at 60° C.): 26.6 mg; Amount of vitamin E ([3]; 14 days at 60° C.): 15.1 mg
(100) % | (66) % | 5.27 mg | 3.49 mg | 2.65 mg | 2.91 mg | 4.57 mg | (50) % | (55) % | (87) % | (100) % | (98) % | OCC1OC2OCC3O[C@H](O[C@H]4C(O)C(CO)OC(OCC5O[C@H](O[C@@H](C1O)C2O)C(O)C(O)[C@@H]5O)C4O)C(O)C(O)[C@@H]3O (stereo partly drawn) [Cyclotetrasaccharide, cyclo{→6}-α-D-glucopyranosyl-(1→3)-α-D-glucopyranosyl-(1→6)-α-D-glucopyranosyl-(1→3)-α-D-glucopyranosyl-(1→}] | (67) % | (48) % | (39) % | (66) % | 5.44 μmol/g-L-lysine | 6.42 μmol/g-L-lysine | 3.39 μmol/g-L-lysine | 3.93 μmol/g-L-lysine | Residual D3 percentage (%) ([1]; seven days at 60° C., listed as cyclotetrasaccharide): 90%; OLAARPs Formation: (%) [2, 7]: about 67%; Protein carbonyl Formation: (%) [2, 7]: about 48%; OLAARPs Formation: (%) [2, 8]: about 39%; Protein carbonyl Formation: (%) [2, 8]: about 66%; Residual vitamin E (%) ([3]; 3 days at 60° C.): (95) %; Residual vitamin E (%) ([3]; 7 days at 60° C.): (90) %; Residual vitamin E (%) ([3]; 14 days at 60° C.): (61) %; Amount of vitamin E ([3]; 0 days at 60° C.): 75.9 mg; Amount of vitamin E ([3]; 1 day at 60° C.): 74.4 mg; Amount of vitamin E ([3]; 3 days at 60° C.): 72.0 mg; Amount of vitamin E ([3]; 7 days at 60° C.): 68.5 mg; Amount of vitamin E ([3]; 14 days at 60° C.): 46.3 mg
